Laboratory results from PubChem BioAssay (NCI).
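Assay format: 96-well plates, 48-hour exposure. The concentration for 50% growth inhibition is given as GI50. TGI: total growth inhibition.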

Columns and labels:
Experiment in all cases: NCI-60 cell line screen, 48 h
[1] = system: 786-0 renal
[2] = system: A549 NSCLC
[3] = system: ACHN renal
[4] = system: BT-549 breast
[5] = system: CAKI-1 renal
[6] = system: CCRF-CEM leukemia
[7] = system: COLO 205 colon
[8] = system: DU-145 prostate
[9] = system: EKVX NSCLC
[10] = system: HCC-2998 colon
[11] = system: HCT-116 colon
[12] = system: HCT-15 colon
[13] = system: HL-60(TB) leukemia
[14] = system: HOP-62 NSCLC
[15] = system: HS 578T breast
[16] = system: HT29 colon
[17] = system: IGROV1 ovarian
[18] = system: K-562 leukemia
[19] = system: KM12 colon
[20] = system: LOX IMVI melanoma
[21] = system: M14 melanoma
[22] = system: MALME-3M melanoma
[23] = system: MCF7 breast
[24] = system: MDA-MB-231 breast
[25] = system: MDA-MB-435
[26] = system: MOLT-4 leukemia
[27] = system: NCI-H226 lung
[28] = system: NCI-H23 lung
[29] = system: NCI-H460 lung
[30] = system: NCI-H522 lung
[31] = system: NCI/ADR-RES ovarian
[32] = system: OVCAR-3 ovarian
[33] = system: OVCAR-4 ovarian
[34] = system: OVCAR-5 ovarian
[35] = system: OVCAR-8 ovarian
[36] = system: PC-3 prostate
[37] = system: RPMI-8226 leukemia
[38] = system: RXF 393 renal
[39] = system: SF-268 CNS
[40] = system: SF-295 CNS
[41] = system: SF-539 CNS
[42] = system: SK-MEL-2 melanoma
[43] = system: SK-MEL-28 melanoma
[44] = system: SK-OV-3 ovarian
[45] = system: SN12C renal
[46] = system: SNB-19 CNS
[47] = system: SNB-75 CNS
[48] = system: SR leukemia
[49] = system: SW-620 colon
[50] = system: T-47D breast
[51] = system: TK-10 renal
[52] = system: U251 CNS
[53] = system: UACC-257 melanoma
[54] = system: UACC-62 melanoma
[55] = system: UO-31 renal
[56] = system: HOP-92 NSCLC
[57] = system: SK-MEL-5 melanoma

Structure (SMILES): O=C(C(Cl)Cl)N(O)c1ccccc1OCc1ccccc1
- TGI [1]: > 100 µM
- TGI [2]: > 100 µM
- TGI [3]: > 100 µM
- TGI [4]: 1.43 µM
- TGI [5]: > 100 µM
- TGI [6]: 39 µM
- TGI [7]: 68 µM
- TGI [8]: 45.5 µM
- TGI [9]: 48.8 µM
- TGI [10]: 6.89 µM
- TGI [11]: > 100 µM
- TGI [12]: > 100 µM
- TGI [13]: > 100 µM
- TGI [14]: > 100 µM
- TGI [15]: 61.7 µM
- TGI [16]: > 100 µM
- TGI [17]: > 100 µM
- TGI [18]: > 100 µM
- TGI [19]: > 100 µM
- TGI [20]: > 100 µM
- TGI [21]: > 100 µM
- TGI [22]: > 100 µM
- TGI [23]: > 100 µM
- TGI [24]: > 100 µM
- TGI [25]: > 100 µM
- TGI [26]: > 100 µM
- TGI [27]: > 100 µM
- TGI [28]: > 100 µM
- TGI [29]: > 100 µM
- TGI [30]: 82.4 µM
- TGI [31]: > 100 µM
- TGI [32]: > 100 µM
- TGI [33]: 78.9 µM
- TGI [34]: > 100 µM
- TGI [35]: 63.5 µM
- TGI [36]: > 100 µM
- TGI [37]: 69.2 µM
- TGI [38]: > 100 µM
- TGI [39]: > 100 µM
- TGI [40]: > 100 µM
- TGI [41]: > 100 µM
- TGI [42]: > 100 µM
- TGI [43]: > 100 µM
- TGI [44]: > 100 µM
- TGI [45]: > 100 µM
- TGI [46]: > 100 µM
- TGI [47]: > 100 µM
- TGI [48]: > 100 µM
- TGI [49]: 68.1 µM
- TGI [50]: 51.8 µM
- TGI [51]: > 100 µM
- TGI [52]: > 100 µM
- TGI [53]: 63.9 µM
- TGI [54]: 92.2 µM
- TGI [55]: > 100 µM

Structure (SMILES): C=C1CC[C@@H]2C(C)(C)[C@H](O)CC[C@@]2(C)[C@@H]1COc1ccc2ccc(=O)oc2c1
- GI50 [1]: 25 µM
- TGI [1]: 68 µM
- GI50 [2]: 21.9 µM
- TGI [2]: 60 µM
- GI50 [3]: 31.6 µM
- TGI [3]: > 100 µM
- GI50 [4]: 20.6 µM
- TGI [4]: 64.1 µM
- GI50 [5]: 23.2 µM
- TGI [5]: 74.5 µM
- GI50 [6]: 28.4 µM
- TGI [6]: > 100 µM
- GI50 [8]: 30.1 µM
- TGI [8]: > 100 µM
- GI50 [9]: 29 µM
- TGI [9]: > 100 µM
- GI50 [10]: 42.3 µM
- TGI [10]: > 100 µM
- GI50 [11]: 26 µM
- TGI [11]: 81.4 µM
- GI50 [12]: 27 µM
- TGI [12]: > 100 µM
- GI50 [13]: 24.1 µM
- TGI [13]: 57.6 µM
- GI50 [14]: 28.2 µM
- TGI [14]: > 100 µM
- GI50 [56]: 12.5 µM
- TGI [56]: 70.5 µM
- GI50 [15]: 25.1 µM
- TGI [15]: 86.8 µM
- GI50 [16]: 32.3 µM
- TGI [16]: > 100 µM
- GI50 [17]: 27.7 µM
- TGI [17]: > 100 µM
- GI50 [18]: 26.9 µM
- TGI [18]: > 100 µM
- GI50 [19]: 21.1 µM
- TGI [19]: 51 µM
- GI50 [20]: 23.3 µM
- TGI [20]: 56.5 µM
- GI50 [21]: 22.5 µM
- TGI [21]: 55.5 µM
- GI50 [22]: 20.3 µM
- TGI [22]: 64.2 µM
- GI50 [23]: 24.3 µM
- TGI [23]: 80.8 µM
- GI50 [24]: 30.4 µM
- TGI [24]: > 100 µM
- GI50 [25]: 25.3 µM
- TGI [25]: 72.3 µM
- GI50 [26]: 23.9 µM
- TGI [26]: 62 µM
- GI50 [28]: 24.5 µM
- TGI [28]: 70.1 µM
- GI50 [29]: 26.5 µM
- TGI [29]: 71.1 µM
- GI50 [30]: 21.2 µM
- TGI [30]: 77.4 µM
- GI50 [31]: 22.9 µM
- TGI [31]: 62.7 µM
- GI50 [32]: 22.3 µM
- TGI [32]: 56 µM
- GI50 [33]: 17.2 µM
- TGI [33]: 56.6 µM
- GI50 [34]: 38.2 µM
- TGI [34]: > 100 µM
- GI50 [35]: 24.2 µM
- TGI [35]: 71 µM
- GI50 [36]: 19.7 µM
- TGI [36]: 66.3 µM
- GI50 [37]: 15.6 µM
- TGI [37]: 51.9 µM
- GI50 [38]: 20.4 µM
- TGI [38]: 79.5 µM
- GI50 [39]: 28.4 µM
- TGI [39]: 90.6 µM
- GI50 [40]: 21.3 µM
- TGI [40]: 62.4 µM
- GI50 [41]: 29.9 µM
- TGI [41]: > 100 µM
- GI50 [42]: 23.9 µM
- TGI [42]: 65.3 µM
- GI50 [43]: 28.7 µM
- TGI [43]: 80.6 µM
- GI50 [57]: 17.9 µM
- TGI [57]: 37 µM
- GI50 [45]: 28.2 µM
- TGI [45]: > 100 µM
- GI50 [46]: 33.7 µM
- TGI [46]: > 100 µM
- TGI [47]: 46.3 µM
- GI50 [48]: 40 µM
- TGI [48]: > 100 µM
- GI50 [49]: 34.5 µM
- TGI [49]: > 100 µM
- GI50 [50]: 14.6 µM
- TGI [50]: 64.1 µM
- GI50 [51]: 35.6 µM
- TGI [51]: > 100 µM
- GI50 [52]: 27.5 µM
- TGI [52]: > 100 µM
- GI50 [53]: 26.9 µM
- TGI [53]: 69.5 µM
- TGI [54]: 48.4 µM
- TGI [55]: 38.4 µM
